Results published in patent US9969694B2, “N-(arylalkyl)-N′-pyrazolyl-urea, thiourea, guanidine and cyanoguanidine compounds as TrkA kinase inhibitors” (Array BioPharma Inc., priority 2012, dated 2018).

Experiments:
Assay in all cases: Off-Target Kinase Profiling
Assay type in all cases: biochemical
Conditions in all cases: 10 μM; ATP near Km
[1] = target: T1, EphB4 (Homo sapiens, UniProt P54760)
T1 construct: purchased Millipore, Inc. (KinaseProfiler service)
Protocol: (§1) Representative compounds of the invention (Examples 33 and 10) were tested for off-target kinase activity at a concentration of 10 μM by Millipore, Inc. in their KinaseProfiler™ service against all the kinases available in their full kinase panel. Compounds were run in duplicate at a concentration of ATP near the Km for each individual kinase according to Millipore's specifications. The results are shown in Table B. Data are reported as percent of control (POC) and are the average of the two replicates.

[2] = target: T2, TBK1 (Homo sapiens, UniProt Q9UHD2)
T2 construct: purchased Millipore, Inc. (KinaseProfiler service)
Protocol: as §1

[3] = target: T3, CDK1/cyclinB (Homo sapiens, UniProt P06493)
T3 construct: purchased Millipore (KinaseProfiler service)
T3 sequence (P06493 whole entry): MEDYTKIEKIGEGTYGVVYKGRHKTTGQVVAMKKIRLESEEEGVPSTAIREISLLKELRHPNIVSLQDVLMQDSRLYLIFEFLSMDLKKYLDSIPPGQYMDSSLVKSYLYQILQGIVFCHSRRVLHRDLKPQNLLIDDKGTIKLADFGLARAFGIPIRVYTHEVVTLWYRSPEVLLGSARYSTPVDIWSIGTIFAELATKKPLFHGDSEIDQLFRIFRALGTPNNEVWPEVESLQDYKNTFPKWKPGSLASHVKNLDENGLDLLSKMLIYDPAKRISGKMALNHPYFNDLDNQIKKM
T3 sequence (P14635 whole entry partner): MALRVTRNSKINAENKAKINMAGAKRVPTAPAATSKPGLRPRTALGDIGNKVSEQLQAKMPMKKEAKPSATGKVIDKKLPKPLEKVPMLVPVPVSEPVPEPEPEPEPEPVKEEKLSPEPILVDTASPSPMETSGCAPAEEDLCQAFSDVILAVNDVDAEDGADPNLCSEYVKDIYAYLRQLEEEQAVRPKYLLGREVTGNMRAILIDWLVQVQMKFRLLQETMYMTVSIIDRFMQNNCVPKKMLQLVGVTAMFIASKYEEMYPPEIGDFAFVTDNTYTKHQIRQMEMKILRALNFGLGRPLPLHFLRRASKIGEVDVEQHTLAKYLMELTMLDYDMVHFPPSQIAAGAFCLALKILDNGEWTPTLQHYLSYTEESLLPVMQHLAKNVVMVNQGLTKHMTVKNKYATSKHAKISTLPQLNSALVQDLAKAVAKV
Protocol: as §1

[4] = target: T4, AURKA (Homo sapiens, UniProt O14965)
T4 construct: purchased Millipore (KinaseProfiler service)
Protocol: as §1

[5] = target: T5, p38delta (Homo sapiens, UniProt O15264)
T5 construct: purchased Millipore, Inc. (KinaseProfiler service)
T5 sequence (O15264 whole entry): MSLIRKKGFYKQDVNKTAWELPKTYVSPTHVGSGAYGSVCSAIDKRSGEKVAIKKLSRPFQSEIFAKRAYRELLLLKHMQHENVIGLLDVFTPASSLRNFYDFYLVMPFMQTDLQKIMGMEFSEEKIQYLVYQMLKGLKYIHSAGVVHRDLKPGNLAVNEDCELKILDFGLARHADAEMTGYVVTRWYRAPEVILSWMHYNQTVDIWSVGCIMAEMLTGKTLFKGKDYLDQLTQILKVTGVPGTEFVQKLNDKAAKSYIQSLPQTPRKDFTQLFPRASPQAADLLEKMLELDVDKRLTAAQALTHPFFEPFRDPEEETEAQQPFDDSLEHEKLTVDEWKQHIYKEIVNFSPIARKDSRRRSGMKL
Protocol: as §1

[6] = target: T6, EphA4 (Homo sapiens, UniProt P54764)
T6 construct: purchased Millipore, Inc. (KinaseProfiler service)
Protocol: as §1

[7] = target: T7, CK1gamma1 (Homo sapiens, UniProt Q9HCP0)
T7 construct: purchased Millipore, Inc. (KinaseProfiler service)
T7 sequence (Q9HCP0 whole entry): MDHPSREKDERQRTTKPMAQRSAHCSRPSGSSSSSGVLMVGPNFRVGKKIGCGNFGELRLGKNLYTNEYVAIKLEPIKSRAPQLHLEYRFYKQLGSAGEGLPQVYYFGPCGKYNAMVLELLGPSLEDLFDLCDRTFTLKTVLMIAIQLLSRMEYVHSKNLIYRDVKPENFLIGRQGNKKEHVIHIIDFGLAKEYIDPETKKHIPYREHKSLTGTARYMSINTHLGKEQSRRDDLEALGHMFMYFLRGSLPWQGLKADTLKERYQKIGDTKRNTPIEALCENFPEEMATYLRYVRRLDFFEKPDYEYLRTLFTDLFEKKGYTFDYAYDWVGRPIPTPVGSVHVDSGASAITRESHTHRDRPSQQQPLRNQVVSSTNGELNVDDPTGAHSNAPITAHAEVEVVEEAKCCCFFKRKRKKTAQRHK
Protocol: as §1

[8] = target: T8, CAMK1d (Homo sapiens, UniProt Q8IU85)
T8 construct: purchased Millipore (KinaseProfiler service)
Protocol: as §1

[9] = target: T9, ARK5 (Homo sapiens, UniProt O60285)
T9 construct: purchased Millipore (KinaseProfiler service)
Protocol: as §1

[10] = target: T10, FGFR3 (Homo sapiens, UniProt P22607)
T10 construct: purchased Millipore, Inc. (KinaseProfiler service)
Protocol: as §1

[11] = target: T11, MSK1 (Homo sapiens, UniProt O75582)
T11 construct: purchased Millipore, Inc. (KinaseProfiler service)
Protocol: as §1

[12] = target: T12, EphB1 (Homo sapiens, UniProt P54762)
T12 construct: purchased Millipore, Inc. (KinaseProfiler service)
Protocol: as §1

[13] = target: T13, EphA5 (Homo sapiens, UniProt P54756)
T13 construct: purchased Millipore, Inc. (KinaseProfiler service)
Protocol: as §1

[14] = target: T14, eEF-2K (Homo sapiens, UniProt O00418)
T14 construct: purchased Millipore, Inc. (KinaseProfiler service)
Protocol: as §1

[15] = target: T15, p38beta (Homo sapiens, UniProt Q15759)
T15 construct: purchased Millipore, Inc. (KinaseProfiler service)
T15 sequence (Q15759 whole entry): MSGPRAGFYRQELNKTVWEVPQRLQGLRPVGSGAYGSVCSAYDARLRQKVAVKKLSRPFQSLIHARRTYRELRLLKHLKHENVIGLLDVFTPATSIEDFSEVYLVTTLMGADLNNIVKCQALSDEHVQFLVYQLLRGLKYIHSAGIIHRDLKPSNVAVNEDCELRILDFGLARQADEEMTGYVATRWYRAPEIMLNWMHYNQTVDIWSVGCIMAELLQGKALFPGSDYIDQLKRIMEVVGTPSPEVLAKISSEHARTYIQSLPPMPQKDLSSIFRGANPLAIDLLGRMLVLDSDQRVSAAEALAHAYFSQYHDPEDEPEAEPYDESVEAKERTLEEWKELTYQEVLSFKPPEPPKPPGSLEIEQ
Protocol: as §1

[16] = target: T16, Plk1 (Homo sapiens, UniProt P53350)
T16 construct: purchased Millipore, Inc. (KinaseProfiler service)
T16 sequence (P53350 whole entry): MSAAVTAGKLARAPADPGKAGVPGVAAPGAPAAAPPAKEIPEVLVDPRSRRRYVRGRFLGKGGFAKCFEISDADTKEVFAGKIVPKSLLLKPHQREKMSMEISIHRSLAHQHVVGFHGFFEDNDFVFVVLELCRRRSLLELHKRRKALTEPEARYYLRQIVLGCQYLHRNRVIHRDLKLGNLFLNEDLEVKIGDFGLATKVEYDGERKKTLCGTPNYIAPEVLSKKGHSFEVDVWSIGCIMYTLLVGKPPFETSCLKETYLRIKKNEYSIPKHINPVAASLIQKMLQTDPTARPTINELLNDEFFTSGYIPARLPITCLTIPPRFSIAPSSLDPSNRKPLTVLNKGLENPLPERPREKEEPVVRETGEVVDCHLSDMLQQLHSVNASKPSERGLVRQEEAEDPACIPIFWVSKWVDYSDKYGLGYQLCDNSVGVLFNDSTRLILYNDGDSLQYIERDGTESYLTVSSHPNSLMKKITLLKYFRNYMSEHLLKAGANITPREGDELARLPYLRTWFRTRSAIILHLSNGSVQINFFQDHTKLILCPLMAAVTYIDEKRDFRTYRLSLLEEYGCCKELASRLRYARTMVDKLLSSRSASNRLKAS
Protocol: as §1

[17] = target: T17, PAK4 (Homo sapiens, UniProt O96013)
T17 construct: purchased Millipore, Inc. (KinaseProfiler service)
T17 sequence (O96013 whole entry): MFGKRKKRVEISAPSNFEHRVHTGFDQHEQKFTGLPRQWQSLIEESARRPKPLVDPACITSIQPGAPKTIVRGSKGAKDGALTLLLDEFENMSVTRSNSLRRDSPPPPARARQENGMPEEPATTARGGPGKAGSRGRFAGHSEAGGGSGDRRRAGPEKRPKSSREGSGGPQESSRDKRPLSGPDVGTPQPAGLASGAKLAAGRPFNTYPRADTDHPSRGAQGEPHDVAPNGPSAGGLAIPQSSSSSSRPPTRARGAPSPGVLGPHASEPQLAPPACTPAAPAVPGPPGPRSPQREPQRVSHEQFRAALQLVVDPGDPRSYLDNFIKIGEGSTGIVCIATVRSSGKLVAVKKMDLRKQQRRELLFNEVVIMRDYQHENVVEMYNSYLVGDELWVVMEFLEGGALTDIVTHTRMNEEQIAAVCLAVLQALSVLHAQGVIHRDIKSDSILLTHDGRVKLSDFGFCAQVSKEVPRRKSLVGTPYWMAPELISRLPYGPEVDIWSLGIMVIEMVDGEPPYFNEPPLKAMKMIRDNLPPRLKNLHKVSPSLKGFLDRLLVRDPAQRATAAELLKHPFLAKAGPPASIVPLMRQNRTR
Protocol: as §1

[18] = target: T18, Rsk1 (Homo sapiens, UniProt Q15418)
T18 construct: purchased Millipore, Inc. (KinaseProfiler service)
T18 sequence (Q15418 whole entry): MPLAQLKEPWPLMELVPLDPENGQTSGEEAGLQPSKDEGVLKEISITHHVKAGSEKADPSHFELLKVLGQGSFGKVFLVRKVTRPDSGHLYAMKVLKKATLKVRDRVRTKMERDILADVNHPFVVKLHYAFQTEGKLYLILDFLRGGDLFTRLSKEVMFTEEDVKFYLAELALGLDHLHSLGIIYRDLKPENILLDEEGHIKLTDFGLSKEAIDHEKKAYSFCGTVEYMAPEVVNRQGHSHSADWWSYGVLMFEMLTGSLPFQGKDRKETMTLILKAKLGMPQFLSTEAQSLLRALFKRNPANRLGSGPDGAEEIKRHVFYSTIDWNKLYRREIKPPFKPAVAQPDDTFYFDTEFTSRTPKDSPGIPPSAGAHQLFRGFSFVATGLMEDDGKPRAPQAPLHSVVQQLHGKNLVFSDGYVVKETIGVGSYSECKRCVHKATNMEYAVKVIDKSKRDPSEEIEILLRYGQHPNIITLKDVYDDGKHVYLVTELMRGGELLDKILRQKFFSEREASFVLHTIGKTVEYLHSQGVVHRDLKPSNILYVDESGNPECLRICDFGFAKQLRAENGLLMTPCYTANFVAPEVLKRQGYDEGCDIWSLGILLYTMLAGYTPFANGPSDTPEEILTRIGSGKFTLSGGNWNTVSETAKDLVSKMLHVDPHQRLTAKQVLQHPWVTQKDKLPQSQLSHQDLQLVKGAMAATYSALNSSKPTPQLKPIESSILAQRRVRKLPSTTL
Protocol: as §1

[19] = target: T19, DMPK (Homo sapiens, UniProt Q09013)
T19 construct: purchased Millipore, Inc. (KinaseProfiler service)
Protocol: as §1

[20] = target: T20, CHK1 (Homo sapiens, UniProt O14757)
T20 construct: purchased Millipore, Inc. (KinaseProfiler service)
Protocol: as §1

[21] = target: T21, DYRK2 (Homo sapiens, UniProt Q92630)
T21 construct: purchased Millipore, Inc. (KinaseProfiler service)
Protocol: as §1

[22] = target: T22, Pim-2 (Homo sapiens, UniProt Q9P1W9)
T22 construct: purchased Millipore, Inc. (KinaseProfiler service)
Protocol: as §1

[23] = target: T23, Abl2 (Homo sapiens, UniProt P42684)
T23 construct: purchased Millipore (KinaseProfiler service)
Protocol: as §1

[24] = target: T24, PKCzeta (Homo sapiens, UniProt Q05513)
T24 construct: purchased Millipore, Inc. (KinaseProfiler service)
Protocol: as §1

[25] = target: T25, CDK5/p35 (Homo sapiens, UniProt Q00535)
T25 construct: purchased Millipore, Inc. (KinaseProfiler service)
Protocol: as §1

[26] = target: T26, MST1 (Homo sapiens, UniProt Q13043)
T26 construct: purchased Millipore, Inc. (KinaseProfiler service)
Protocol: as §1

[27] = target: T27, CDK2/cyclinE (Homo sapiens, UniProt P24941)
T27 construct: purchased Millipore, Inc. (KinaseProfiler service)
Protocol: as §1

[28] = target: T28, SRC (Homo sapiens, UniProt P12931)
T28 construct: purchased Millipore, Inc. (KinaseProfiler service)
Protocol: as §1

[29] = target: T29, PDGFRalpha (Homo sapiens, UniProt P16234)
T29 construct: purchased Millipore, Inc. (KinaseProfiler service)
Protocol: as §1

[30] = target: T30, Fer (Homo sapiens, UniProt P16591)
T30 construct: purchased Millipore, Inc. (KinaseProfiler service)
T30 sequence (P16591 whole entry): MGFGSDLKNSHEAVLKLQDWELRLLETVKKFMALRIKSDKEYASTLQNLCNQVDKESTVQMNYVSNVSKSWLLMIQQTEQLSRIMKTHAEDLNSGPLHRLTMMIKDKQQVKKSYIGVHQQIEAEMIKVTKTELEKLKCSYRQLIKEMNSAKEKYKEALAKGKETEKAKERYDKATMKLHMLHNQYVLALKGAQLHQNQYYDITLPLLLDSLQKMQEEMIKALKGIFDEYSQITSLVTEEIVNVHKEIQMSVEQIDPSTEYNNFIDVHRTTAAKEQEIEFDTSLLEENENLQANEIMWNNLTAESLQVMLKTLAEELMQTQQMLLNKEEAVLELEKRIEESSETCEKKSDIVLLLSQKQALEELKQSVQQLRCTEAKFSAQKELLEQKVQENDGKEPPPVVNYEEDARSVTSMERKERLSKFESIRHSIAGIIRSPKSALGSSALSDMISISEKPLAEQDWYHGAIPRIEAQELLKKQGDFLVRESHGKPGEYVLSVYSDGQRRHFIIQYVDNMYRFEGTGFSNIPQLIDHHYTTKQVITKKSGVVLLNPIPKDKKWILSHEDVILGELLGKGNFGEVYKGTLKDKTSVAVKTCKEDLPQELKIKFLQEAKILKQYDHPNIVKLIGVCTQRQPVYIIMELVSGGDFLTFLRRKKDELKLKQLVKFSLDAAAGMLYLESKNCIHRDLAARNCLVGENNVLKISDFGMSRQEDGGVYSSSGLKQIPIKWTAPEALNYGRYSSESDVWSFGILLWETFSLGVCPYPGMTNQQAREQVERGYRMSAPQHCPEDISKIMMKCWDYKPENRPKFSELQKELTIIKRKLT
Protocol: as §1

[31] = target: T31, SRPK1 (Homo sapiens, UniProt Q96SB4)
T31 construct: purchased Millipore, Inc. (KinaseProfiler service)
Protocol: as §1

[32] = target: T32, MAP3K5 (Homo sapiens, UniProt Q99683)
T32 construct: purchased Millipore, Inc. (KinaseProfiler service)
Protocol: as §1

[33] = target: T33, EphA7 (Homo sapiens, UniProt Q15375)
T33 construct: purchased Millipore, Inc. (KinaseProfiler service)
Protocol: as §1

[34] = target: T34, IKKbeta (Homo sapiens, UniProt O14920)
T34 construct: purchased Millipore, Inc. (KinaseProfiler service)
Protocol: as §1

[35] = target: T35, Fes (Homo sapiens, UniProt P07332)
T35 construct: purchased Millipore, Inc. (KinaseProfiler service)
Protocol: as §1

[36] = target: T36, BrSK1 (Homo sapiens, UniProt Q8TDC3)
T36 construct: purchased Millipore (KinaseProfiler service)
Protocol: as §1

[37] = target: T37, EphA1 (Homo sapiens, UniProt P21709)
T37 construct: purchased Millipore, Inc. (KinaseProfiler service)
Protocol: as §1

[38] = target: T38, WNK3 (Homo sapiens, UniProt Q9BYP7)
T38 construct: purchased Millipore, Inc. (KinaseProfiler service)
Protocol: as §1

[39] = target: T39, Pim-1 (Homo sapiens, UniProt P11309)
T39 construct: purchased Millipore, Inc. (KinaseProfiler service)
T39 sequence (P11309 whole entry): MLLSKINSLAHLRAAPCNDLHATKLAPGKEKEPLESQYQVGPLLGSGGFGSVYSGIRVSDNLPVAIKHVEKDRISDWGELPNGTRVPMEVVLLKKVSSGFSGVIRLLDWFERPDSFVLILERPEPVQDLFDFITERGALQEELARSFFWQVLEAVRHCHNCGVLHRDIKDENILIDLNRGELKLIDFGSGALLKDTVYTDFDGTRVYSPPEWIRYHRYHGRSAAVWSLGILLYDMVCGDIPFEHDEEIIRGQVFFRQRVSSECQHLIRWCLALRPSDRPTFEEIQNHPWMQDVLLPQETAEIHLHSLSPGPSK
Protocol: as §1

[40] = target: T40, MSK2 (Homo sapiens, UniProt O75676)
T40 construct: purchased Millipore, Inc. (KinaseProfiler service)
Protocol: as §1

[41] = target: T41, HIPK1 (Homo sapiens, UniProt Q86Z02)
T41 construct: purchased Millipore, Inc. (KinaseProfiler service)
Protocol: as §1

COCc1ccc(C2CCC2)c(CNC(=O)Nc2c(C)c(-c3cnc(C)nc3)nn2-c2ccccc2)c1 [Example 10, 1-(2-cyclobutyl-5-(methoxymethyl)benzyl)-3-(4-methyl-3-(2-methylpyrimidin-5-yl)-1-phenyl-1H-pyrazol-5-yl)urea]
Avg POC EphB4 [1]: 140.5 POC
Avg POC TBK1 [2]: 104.5 POC
Avg POC CDK1/cyclinB [3]: 92 POC
Avg POC AURKA [4]: 90 POC
Avg POC p38delta [5]: 81 POC
Avg POC EphA4 [6]: 105.5 POC
Avg POC CK1gamma1 [7]: 79 POC
Avg POC CAMK1d [8]: 81 POC
Avg POC ARK5 [9]: 87 POC
Avg POC FGFR3 [10]: 104 POC
Avg POC MSK1 [11]: 88.5 POC
Avg POC EphB1 [12]: 131 POC
Avg POC EphA5 [13]: 114 POC
Avg POC eEF-2K [14]: 109.5 POC
Avg POC p38beta [15]: 101.5 POC
Avg POC Plk1 [16]: 84 POC
Avg POC PAK4 [17]: 102.5 POC
Avg POC Rsk1 [18]: 96.5 POC
Avg POC DMPK [19]: 101.5 POC
Avg POC CHK1 [20]: 102.5 POC
Avg POC DYRK2 [21]: 92.5 POC
Avg POC Pim-2 [22]: 118 POC
Avg POC Abl2 [23]: 95 POC
Avg POC PKCzeta [24]: 92.5 POC
Avg POC CDK5/p35 [25]: 97 POC
Avg POC MST1 [26]: 87.5 POC
Avg POC CDK2/cyclinE [27]: 93 POC
Avg POC SRC [28]: 96 POC
Avg POC PDGFRalpha [29]: 102 POC
Avg POC Fer [30]: 96.5 POC
Avg POC SRPK1 [31]: 116 POC
Avg POC MAP3K5 [32]: 99 POC
Avg POC EphA7 [33]: 92.5 POC
Avg POC IKKbeta [34]: 104.5 POC
Avg POC Fes [35]: 90 POC
Avg POC BrSK1 [36]: 86.5 POC
Avg POC EphA1 [37]: 98 POC
Avg POC WNK3 [38]: 101.5 POC
Avg POC Pim-1 [39]: 101.5 POC
Avg POC MSK2 [40]: 110.5 POC
Avg POC HIPK1 [41]: 100.5 POC

COCc1ccc(C(F)(F)F)c(CNC(=O)Nc2c(C)c(-c3cnn(C)c3)nn2-c2ccccc2)c1 [Example 33, 1-(1′,4-dimethyl-1-phenyl-1H,1′H-[3,4′-bipyrazol]-5-yl)-3-(5-(methoxymethyl)-2-(trifluoromethyl)benzyl)urea]
Avg POC EphB4 [1]: 128 POC
Avg POC TBK1 [2]: 105.5 POC
Avg POC CDK1/cyclinB [3]: 99 POC
Avg POC AURKA [4]: 112 POC
Avg POC p38delta [5]: 85 POC
Avg POC EphA4 [6]: 120 POC
Avg POC CK1gamma1 [7]: 105.5 POC
Avg POC CAMK1d [8]: 111.5 POC
Avg POC ARK5 [9]: 85.5 POC
Avg POC FGFR3 [10]: 116 POC
Avg POC MSK1 [11]: 147 POC
Avg POC EphB1 [12]: 133 POC
Avg POC EphA5 [13]: 123 POC
Avg POC eEF-2K [14]: 169.5 POC
Avg POC p38beta [15]: 111.5 POC
Avg POC Plk1 [16]: 93 POC
Avg POC PAK4 [17]: 108.5 POC
Avg POC Rsk1 [18]: 119.5 POC
Avg POC DMPK [19]: 104 POC
Avg POC CHK1 [20]: 97 POC
Avg POC DYRK2 [21]: 91.5 POC
Avg POC Pim-2 [22]: 146 POC
Avg POC Abl2 [23]: 139.5 POC
Avg POC PKCzeta [24]: 99 POC
Avg POC CDK5/p35 [25]: 108.5 POC
Avg POC MST1 [26]: 87.5 POC
Avg POC CDK2/cyclinE [27]: 115.5 POC
Avg POC SRC [28]: 101 POC
Avg POC PDGFRalpha [29]: 126.5 POC
Avg POC Fer [30]: 90.5 POC
Avg POC SRPK1 [31]: 113.5 POC
Avg POC MAP3K5 [32]: 100 POC
Avg POC EphA7 [33]: 94.5 POC
Avg POC IKKbeta [34]: 120.5 POC
Avg POC Fes [35]: 109 POC
Avg POC BrSK1 [36]: 119 POC
Avg POC EphA1 [37]: 90 POC
Avg POC WNK3 [38]: 111 POC
Avg POC Pim-1 [39]: 138 POC
Avg POC MSK2 [40]: 207.5 POC
Avg POC HIPK1 [41]: 115.5 POC
